Test results reported in patent publication US9902714B2, “Quinoxaline derivatives useful as FGFR kinase modulators” (ASTEX THERAPEUTICS LTD, priority 2014, dated 2018).

Experiments:
[1] = target: FGFR4 (Homo sapiens (Human), UniProt P22455); assay: Enzyme binding assay (KINOMEscan) FGFR4
[2] = target: VEGFR2 (Homo sapiens (Human), UniProt P35968); assay: Enzyme binding assay (KINOMEscan) VEGFR2
VEGFR2, sequence (P35968 20-1356): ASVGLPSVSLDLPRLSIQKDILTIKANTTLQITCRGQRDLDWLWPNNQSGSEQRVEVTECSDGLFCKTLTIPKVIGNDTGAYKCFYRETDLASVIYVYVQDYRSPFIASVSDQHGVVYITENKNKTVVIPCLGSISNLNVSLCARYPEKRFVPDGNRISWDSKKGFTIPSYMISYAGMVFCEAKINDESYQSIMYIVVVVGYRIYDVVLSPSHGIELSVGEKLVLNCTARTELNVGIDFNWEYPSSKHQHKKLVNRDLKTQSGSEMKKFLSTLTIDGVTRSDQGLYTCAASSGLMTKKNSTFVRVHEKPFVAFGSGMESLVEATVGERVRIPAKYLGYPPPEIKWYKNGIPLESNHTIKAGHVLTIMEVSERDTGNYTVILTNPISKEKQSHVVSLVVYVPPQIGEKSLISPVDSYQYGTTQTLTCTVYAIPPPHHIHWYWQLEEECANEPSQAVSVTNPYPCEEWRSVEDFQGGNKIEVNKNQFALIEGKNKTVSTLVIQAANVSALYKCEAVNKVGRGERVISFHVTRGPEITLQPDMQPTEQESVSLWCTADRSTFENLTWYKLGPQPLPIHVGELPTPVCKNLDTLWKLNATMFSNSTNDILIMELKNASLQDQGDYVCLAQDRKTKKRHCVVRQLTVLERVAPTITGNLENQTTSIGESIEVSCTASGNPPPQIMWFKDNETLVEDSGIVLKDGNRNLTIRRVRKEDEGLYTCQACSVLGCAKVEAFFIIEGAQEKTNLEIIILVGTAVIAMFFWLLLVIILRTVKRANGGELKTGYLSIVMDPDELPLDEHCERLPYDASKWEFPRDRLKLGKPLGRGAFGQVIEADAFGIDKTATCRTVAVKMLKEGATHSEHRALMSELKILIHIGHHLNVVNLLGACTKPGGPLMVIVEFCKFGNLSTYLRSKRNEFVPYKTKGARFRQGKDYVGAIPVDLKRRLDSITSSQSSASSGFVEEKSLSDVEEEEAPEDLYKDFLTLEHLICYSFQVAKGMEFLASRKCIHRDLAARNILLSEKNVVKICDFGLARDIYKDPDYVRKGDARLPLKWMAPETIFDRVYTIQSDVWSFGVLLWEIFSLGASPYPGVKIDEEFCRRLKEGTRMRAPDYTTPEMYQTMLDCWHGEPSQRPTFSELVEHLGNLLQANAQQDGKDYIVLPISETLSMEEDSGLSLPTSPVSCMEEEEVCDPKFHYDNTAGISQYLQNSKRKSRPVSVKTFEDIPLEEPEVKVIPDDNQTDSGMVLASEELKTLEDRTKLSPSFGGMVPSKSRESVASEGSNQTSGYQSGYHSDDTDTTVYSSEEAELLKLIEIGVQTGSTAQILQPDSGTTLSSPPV

FGFR4, sequence (P22455 22-802): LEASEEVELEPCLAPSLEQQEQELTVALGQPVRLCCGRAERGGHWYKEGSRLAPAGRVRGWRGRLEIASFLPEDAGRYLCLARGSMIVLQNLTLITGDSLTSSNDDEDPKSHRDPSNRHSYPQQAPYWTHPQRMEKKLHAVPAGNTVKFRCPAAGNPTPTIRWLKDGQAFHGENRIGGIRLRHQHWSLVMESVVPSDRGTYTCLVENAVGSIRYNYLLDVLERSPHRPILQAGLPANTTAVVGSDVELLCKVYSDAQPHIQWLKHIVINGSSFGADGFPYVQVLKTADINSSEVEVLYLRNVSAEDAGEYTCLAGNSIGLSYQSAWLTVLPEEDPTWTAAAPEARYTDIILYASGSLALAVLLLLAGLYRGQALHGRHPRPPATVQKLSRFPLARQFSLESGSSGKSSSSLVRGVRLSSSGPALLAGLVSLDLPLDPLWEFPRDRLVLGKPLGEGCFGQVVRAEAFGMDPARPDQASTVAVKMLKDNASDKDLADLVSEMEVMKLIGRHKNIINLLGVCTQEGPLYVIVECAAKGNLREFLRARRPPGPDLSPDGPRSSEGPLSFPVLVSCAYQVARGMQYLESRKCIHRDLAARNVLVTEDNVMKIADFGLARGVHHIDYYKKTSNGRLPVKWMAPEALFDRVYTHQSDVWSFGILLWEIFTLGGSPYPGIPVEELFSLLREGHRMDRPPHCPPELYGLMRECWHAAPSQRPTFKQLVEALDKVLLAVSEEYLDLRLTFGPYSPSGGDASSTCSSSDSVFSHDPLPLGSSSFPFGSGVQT

Row | SMILES | Kd [1] [nM] | Kd [2] [nM]
1 | COc1cc(OC)c2c(c1)N(c1ccc3ncc(-c4cnn(C)c4)nc3c1)CCCN(C(C)C)C2 [Compound 9] | 355 | 922
2 | CCn1cc(-c2cnc3ccc(N4CCN(C(C)C)Cc5c(OC)cc(OC)cc54)cc3n2)cn1 [Compound 7] | 230 | 1700
3 | CCn1cc(-c2cnc3ccc(N4CCN(C)Cc5c(OC)cc(OC)cc54)cc3n2)cn1 [Compound 6] | > 3000 | > 3000

The next lines start with the values.

Row | Kd [1] [nM] | Kd [2] [nM] | SMILES
4 | 1900 | > 3000 | COc1cc(O)c2c(c1)N(c1ccc3ncc(-c4cnn(C)c4)nc3c1)CCN(C(C)C)C2 [Compound 3]
5 | > 3000 | > 3000 | COc1cc(O)cc2c1CN(C(C)C)CCN2c1ccc2ncc(-c3cnn(C)c3)nc2c1 [Compound 4]
6 | 68 | 741 | COc1cc(OC)c2c(c1)N(c1ccc3ncc(-c4cn[nH]c4)nc3c1)CCN(C(C)C)C2 [Compound 2]
